Laboratory results published in patent publication US9266908B2, “Inhibitors of arginase and their therapeutic applications” (MARS, INCORPORATED, priority 2011, dated 2016).

Assays:
[1] = tested on: experimental autoimmune encephalomyelitis (EAE); conditions: animals undergoing EAE; cited from earlier work
human arginase I (ARG I) = target: T1, human arginase I (ARG I) (Homo sapiens, UniProt P05089); experiment: Inhibition of arginase I, spectrophotometric urea assay at 530 nm
T1 sequence (P05089 1-322): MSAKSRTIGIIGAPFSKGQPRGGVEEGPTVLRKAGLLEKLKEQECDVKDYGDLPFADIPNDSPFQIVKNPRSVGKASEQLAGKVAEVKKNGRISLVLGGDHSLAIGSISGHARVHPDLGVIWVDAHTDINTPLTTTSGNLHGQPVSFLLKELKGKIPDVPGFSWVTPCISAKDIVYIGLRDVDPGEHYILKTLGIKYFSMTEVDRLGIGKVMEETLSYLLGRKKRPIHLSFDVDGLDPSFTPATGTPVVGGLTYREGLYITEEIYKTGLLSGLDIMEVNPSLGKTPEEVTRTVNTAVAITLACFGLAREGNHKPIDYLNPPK
Description: (§1) Inhibition of arginase I (ARG I) and arginase II (ARG II) by the inventive compounds is followed spectrophotometrically at 530 nm. […] Solutions of arginase I and II are prepared in 100 mM sodium phosphate buffer, pH 7.4 containing 1 mg/ml of OVA to give an arginase stock solution at a final concentration of 100 ng/ml.
(§2) To each well of a 96-well microtiter plate is add 40 μl of enzyme, 10 μl of an inventive compound and 10 μl of enzyme substrate (L-arginine+ manganese sulfate). For wells that are used as positive controls, only the enzyme and its substrate are added, while wells used as negative controls contain only manganese sulfate.
(§3) After incubating the microtiter plate at 37° C. for 60 minutes, 150 μl of a urea reagent obtained by combining equal proportions (1:1) of reagents A and B is added to each well of the microtiter plate to stop the reaction. The urea reagent is made just before use by combining Reagent A (10 mM o-phthaldialdehyde, and 0.4% polyoxyethylene (23) lauryl ether (w/v) in 1.8 M sulfuric acid) with Reagent B (1.3 mM primaquine diphosphate, 0.4% polyoxyethylene (23) lauryl ether (w/v), 130 mM boric acid in 3.6 M sulfuric acid). After quenching the reaction mixture, the microtiter plate is allowed to stand for an additional 10 minutes at room temperature to allow color development. […] The normalized OD is then used to generate a dose-response curve by plotting the normalized OD values against log [concentration] and using regression analysis to compute the IC50 values.

arginase II (ARG II) = target: T2, arginase II (ARG II) (Homo sapiens, UniProt P78540); experiment: Inhibition of arginase II, spectrophotometric urea assay at 530 nm
T2 sequence (P78540 23-354): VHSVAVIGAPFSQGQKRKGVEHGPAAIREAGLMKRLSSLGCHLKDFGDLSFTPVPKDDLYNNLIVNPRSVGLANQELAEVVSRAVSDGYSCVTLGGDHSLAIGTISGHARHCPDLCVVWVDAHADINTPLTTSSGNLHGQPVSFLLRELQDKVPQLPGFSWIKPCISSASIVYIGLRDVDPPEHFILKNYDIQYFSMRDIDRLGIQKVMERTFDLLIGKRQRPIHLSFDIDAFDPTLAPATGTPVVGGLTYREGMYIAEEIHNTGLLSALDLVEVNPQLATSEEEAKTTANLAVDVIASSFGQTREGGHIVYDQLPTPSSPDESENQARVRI
Description: as §1, §2, §3

human-Arginase-1 = target: T3, human-Arginase-1 (Homo sapiens, UniProt P05089); experiment: Urea production in CHOK cells stably transfected with human-Arginase-1; assay type: cell-based; conditions: IC50 class, 5 mM arginine, 24 hours, read-out: CHOK Cell
T3 construct: expressed in transfected cells; host or cells: CHOK cells
T3 sequence (P05089 1-322): T1 sequence (P05089 1-322)
Description: Table 3 also provides CHOK cell based IC50 values for illustrative arginase inhibitors. IC50 values were determined by measuring the production of urea in CHOK cells stably transfected with human-Arginase-1.
Briefly, CHOK cells were stably transfected with human-arginase-1. To determiner the IC50 values for compounds in accordance with the present invention, parental CHOK cells and arginase-1 stably transfected cells were plated in a 96 well plate. Cells were plated using 200 μl of complete growth medium and incubated overnight at 37° C.
Media from each of the wells containing cells was first removed and growth media supplemented with arginine at a concentration of 5 mM was added to each well. The test compounds were dissolved in PBS buffer to the desired concentration and added to appropriate wells. The plate was then incubated at 37° C. for 24 hours. After 24 hours the plates were spun down at 3000 RPM for 5 min and 50 μl of the media were transferred to a new plate.
An aqueous solution of o-phthaldehyde, Brij, sulfuric acid, primaquine diphosphate and boric acid was added to each well and the plate was incubated for 10-15 minutes. The urea concentration in each well was determined by measuring the optical density at 520-530 nanometers using a standard curve. The IC50 values were calculated by measuring urea production at various concentrations of the inventive arginase inhibitors after subtracting the value related to the concentration of urea in control wells.

bacterial arginase = conditions: cited from earlier work
murine chronic model = conditions: cited from earlier work
[2] = tested on: spontaneously hypertensive animals; conditions: cited from earlier work

Row | Compound | IC50 (human arginase I (ARG I)) [nM] | IC50 (arginase II (ARG II)) [nM] | IC50 (human-Arginase-1) [µM] | also measured
1 | NC(CCCCB(O)O)C(=O)O (stereo not drawn) [ABH, amino-6-boronohexanoic acid] | – | – | – | form of EAE developed versus control animals [1]: much milder form of EAE
2 | NC(CCCCB(O)O)(C(=O)O)[C@H]1C[C@@H](NCc2ccccc2-c2ccc(Cl)cc2)C1 (stereo partly drawn) [Example 22, (S)-2-amino-6-borono-2-((1s,3R)-3-((4′-chlorobiphenyl-2-yl)methylamino)cyclobutyl)hexanoic acid] | 26 to 100 | 26 to 100 | 26 to 100 | –
3 | NC(CCCCB(O)O)(C(=O)O)[C@H]1C[C@@H](NCc2ccc(-c3ccccc3)nc2)C1 (stereo partly drawn) [Example 23, (S)-2-amino-6-borono-2-((1s,3R)-3-((6-phenylpyridin-3-yl)methylamino)cyclobutyl)hexanoic acid] | 26 to 100 | 0.1 to 25 | 1 to 25 | –
4 | NC(CCCCB(O)O)(C(=O)O)[C@H]1C[C@@H](NCc2ccc3c(c2)Cc2ccccc2-3)C1 (stereo partly drawn) [Example 24, (S)-2-((1s,3R)-3-((9H-fluoren-2-yl)methylamino)cyclobutyl)-2-amino-6-boronohexanoic acid] | 0.1 to 25 | 0.1 to 25 | 26 to 100 | –
5 | NC(CCCCB(O)O)(C(=O)O)[C@H]1C[C@@H](NCc2ccccc2-c2ccc(C(F)(F)F)cc2)C1 (stereo partly drawn) [Example 25, (S)-2-amino-6-borono-2-((1s,3R)-3-((4′-(trifluoromethyl)biphenyl-2-yl)methylamino)cyclobutyl)hexanoic acid] | 26 to 100 | 26 to 100 | 26 to 100 | –
6 | NC(CCCCB(O)O)(C(=O)O)[C@H]1C[C@@H](NCc2ccc(C3CCCCC3)cc2)C1 (stereo partly drawn) [Example 26, (S)-2-amino-6-borono-2-((1s,3R)-3-(4-cyclohexylbenzylamino)cyclobutyl)hexanoic acid] | 0.1 to 25 | 26 to 100 | 26 to 100 | –
7 | NC(CCCCB(O)O)(C(=O)O)[C@H]1C[C@@H](N(Cc2ccccc2)Cc2ccccc2)C1 (stereo partly drawn) [Example 27, (S)-2-amino-6-borono-2-((1s,3R)-3-(dibenzylamino)cyclobutyl)hexanoic acid] | 101 to 500 | 501 to 1500 | 26 to 100 | –
8 | CNC(CCCCB(O)O)(CCN1Cc2ccccc2C1)C(=O)O (stereo not drawn) [Example 30, 6-borono-2-(2-(isoindolin-2-yl)ethyl)-2-(methylamino)hexanoic acid] | 101 to 500 | 101 to 500 | 1 to 25 | –
9 | CNC(CCCCB(O)O)(CCN1CCC(C)CC1)C(=O)O (stereo not drawn) [Example 33, 6-borono-2-(methylamino)-2-(2-(4-methylpiperidin-1-yl)ethyl)hexanoic acid] | 101 to 500 | 101 to 500 | 26 to 100 | –
10 | CNC(CCCCB(O)O)(CCNCc1ccc(Cl)c(Cl)c1)C(=O)O (stereo not drawn) [Example 35, 6-borono-2-(2-(3,4-dichlorobenzylamino)ethyl)-2-(methylamino)hexanoic acid] | 101 to 500 | 101 to 500 | 26 to 100 | –
11 | CNC(CCCCB(O)O)(CCN1CCC(c2ccccc2)CC1)C(=O)O (stereo not drawn) [Example 36, 6-borono-2-(methylamino)-2-(2-(4-phenylpiperidin-1-yl)ethyl)hexanoic acid] | 101 to 500 | 101 to 500 | 1 to 25 | –
12 | NC(CCCCB(O)O)(CCCN1Cc2ccccc2C1)C(=O)O (stereo not drawn) [Example 39, 2-amino-6-borono-2-(3-(isoindolin-2-yl)propyl)hexanoic acid] | 26 to 100 | 101 to 500 | 1 to 25 | –
13 | NC(CCCCB(O)O)(CCCN1CCc2c(Cl)cccc2C1)C(=O)O (stereo not drawn) [Example 40, 2-amino-6-borono-2-(3-(5-chloro-3,4-dihydroisoquinolin-2(1H)-yl)propyl)hexanoic acid] | 26 to 100 | 101 to 500 | 1 to 25 | –
14 | NC(CCCCB(O)O)(CCCN1CCc2ccccc2C1)C(=O)O (stereo not drawn) [Example 41, 2-amino-6-borono-2-(3-(3,4-dihydroisoquinolin-2(1H)-yl)propyl)hexanoic acid] | 101 to 500 | 101 to 500 | 1 to 25 | –
15 | NC(CCCCB(O)O)(C(=O)O)[C@H]1CC[C@@H](NCc2ccc(-c3ccccc3)cc2)C1 (stereo partly drawn) [Example 44] | 26 to 100 | 26 to 100 | 26 to 100 | –
16 | NC(CCCCB(O)O)(C(=O)O)C1CC2CCC(C1)N2Cc1ccc(Cl)cc1 [Example 45, 2-amino-6-borono-2-{(1R,5S)-8-(4-chlorobenzyl)-8-aza-bicycli[3.2.1]-octan-3-yl}-hexanoic acid] | 0.1 to 25 | 26 to 100 | 1 to 25 | –
17 | NC(CCCCB(O)O)(C(=O)O)C1CC2CCC(C1)N2Cc1ccc(Cl)c(Cl)c1 [Example 46, 2-Amino-6-borono-2-{(1R,5S)-8-(3,4-dichlorobenzyl)-8-aza-bicycli[3.2.1]-octan-3-yl}-hexanoic acid] | 0.1 to 25 | 0.1 to 25 | 1 to 25 | –
18 | NC(CCCCB(O)O)(C(=O)O)[C@H]1C[C@@H](NCc2ccc(-c3ccc(Cl)cc3)cc2F)C1 (stereo partly drawn) [Example 49, (S)-2-amino-6-borono-2-((1s,3R)-3-((4′-chloro-3-fluorobiphenyl-4-yl)methylamino)cyclobutyl)hexanoic acid] | 0.1 to 25 | 0.1 to 25 | 1 to 25 | –
19 | NC(CCCCB(O)O)(C(=O)O)[C@H]1C[C@@H](NCCCc2ccc(C(F)(F)F)cc2)C1 (stereo partly drawn) [Example 56, (S)-2-amino-6-borono-2-((1s,3R)-3-(3-(4-(trifluoromethyl)phenyl)propylamino)cyclobutyl)hexanoic acid] | 0.1 to 25 | 26 to 100 | 26 to 100 | –
20 | NC(CCCCB(O)O)(C(=O)O)C1CC2CCC(C1)N2 (stereo not drawn) [Example 61, 2-amino-2-(8-azabicyclo[3.2.1]octan-3-yl)-6-boronohexanoic acid] | 26 to 100 | 26 to 100 | 1 to 25 | –
21 | NC(CCCCB(O)O)(C(=O)O)C1CC2CCC(C1)N2Cc1ccccc1 (stereo not drawn) [Example 62, 2-amino-2-(8-benzyl-8-azabicyclo[3.2.1]octan-3-yl)-6-boronohexanoic acid] | 0.1 to 25 | 26 to 100 | 1 to 25 | –
22 | NC(CCCCB(O)O)(C(=O)O)C1CC2CCC(C1)N2Cc1ccc(F)c(F)c1 (stereo not drawn) [Example 63, 2-amino-6-borono-2-(8-(3,4-difluorobenzyl)-8-azabicyclo[3.2.1]octan-3-yl)hexanoic acid] | 0.1 to 25 | 26 to 100 | 1 to 25 | –
23 | NC(CCCCB(O)O)(C(=O)O)C1CC2CCC(C1)N2Cc1ccc(OC(F)(F)F)cc1 (stereo not drawn) [Example 64, 2-amino-6-borono-2-(8-(4-(trifluoromethoxy)benzyl)-8-azabicyclo[3.2.1]octan-3-yl)hexanoic acid] | 26 to 100 | 26 to 100 | 26 to 100 | –
24 | CCN(CCO)CC[C@](N)(CCCCB(O)O)C(=O)O [Example 67, (R)-2-amino-6-borono-2-(2-(ethyl(2-hydroxyethyl)amino)ethyl)hexanoic acid] | 501 to 1500 | 101 to 500 | 1 to 25 | –
25 | CCN(CC)CC[C@](N)(CCCCB(O)O)C(=O)O [Example 68, (R)-2-amino-6-borono-2-(2-(diethylamino)ethyl)hexanoic acid] | 101 to 500 | 101 to 500 | 1 to 25 | –
26 | NC(=NCCC[C@H](N)C(=O)O)NO [NOHA] | – | – | – | CD3 expression on T-cells (bacterial arginase): reestablished; production of NO by macrophages (bacterial arginase): enhanced
27 | N[C@@H](CSCCB(O)O)C(=O)O [S-(2-boronoethyl)-L-cysteine] | – | – | – | methacholine induced responsiveness of the central airways (murine chronic model): attenuated
28 | N=C(NO)NCC[C@H](N)C(=O)O [nor-NOHA, N^ω-hydroxy-nor-L-arginine] | – | – | – | blood pressure [2]: lowered; vascular response of resistance vessels to blood flow and pressure [2]: improved
